Series [1] has as its system diabetic (ob/ob) mice. The series is described as follows: Blood glucose lowering in diabetic (ob/ob) mice. The class given is in vivo, mouse. Particulars: dose 100 mg/Kg, plasma glucose. The source says:
The procedures used and results obtained are briefly described below.
The non-insulin dependent diabetic (NIDDM) syndrome can be typically characterizes by obesity, hyperglycemia, abnormal insulin secretion, hyperinsulinemia and insulin resistance.
In each test procedure, mice [Male or female ob/ob (C57 B1/6J) and their lean litermates (ob/+ or +/+, Jackson Laboratories) ages 2 to 5 months (10 to 65 g)] of a similar age were randomized according to body weight into 4 groups of 10 mice. The mice were housed 5 per cage and are maintained on normal rodent chow with water ad libitum. Mice received test compound daily by gavage (suspended in 0.5 ml of 0.5% methyl cellulose); dissolved in the drinking water; or admixed in the diet. The dose of compounds given ranges from 2.5 to 200 mg/kg body weight/day. The dose is calculated based on the fed weekly body weight and is expressed as active moiety. […]
On the morning of Day 4, 7 or 14 two drops of blood (approximately 50 ul) were collected into sodium fluoride containing tubes either from the tail vein or after decapitation. […] The plasma was isolated by centrifugation and the concentration of glucose is measured enzymatically on an Abbott V.P. Analyzer.
For each mouse, the percentage change in plasma glucose on Day 4, 7 or 14 is calculated relative to the mean plasma glucose of the vehicle treated mice. […]

Series [2] addresses T1, Human recombinant PTP1B (Homo sapiens, UniProt P18031).
T1 construct: made in house
T1 sequence (P18031 1-435): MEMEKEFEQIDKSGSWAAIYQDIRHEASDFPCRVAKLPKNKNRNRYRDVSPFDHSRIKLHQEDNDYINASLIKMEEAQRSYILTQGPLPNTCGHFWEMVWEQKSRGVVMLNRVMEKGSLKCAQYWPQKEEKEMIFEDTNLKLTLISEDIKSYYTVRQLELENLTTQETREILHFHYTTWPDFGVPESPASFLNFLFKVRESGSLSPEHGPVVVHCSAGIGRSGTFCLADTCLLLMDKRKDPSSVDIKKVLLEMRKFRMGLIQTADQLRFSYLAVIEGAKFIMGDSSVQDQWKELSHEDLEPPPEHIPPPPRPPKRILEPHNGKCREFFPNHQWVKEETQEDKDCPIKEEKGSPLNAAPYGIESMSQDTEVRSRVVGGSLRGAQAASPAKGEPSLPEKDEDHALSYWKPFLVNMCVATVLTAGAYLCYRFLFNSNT
The class given is biochemical. The note with it: for IC50: recombinant PTP1B, malachite green phosphate detection; for percent of phosphatase control (change) at single concentration: compound at 2.5 uM.

Series [3] deals with rat hepatic microsomal PTPases. The note with it: PTPase activity, compound at 50 μM, rat liver microsomes.

Results on 18 molecules are retold here after patent US6699896B1, “Oxazole-aryl-carboxylic acids useful in the treatment of insulin resistance and hyperglycemia” (Wyeth, priority 1998, dated 2004).

Marks after values point to notes of the source that are not given here.

On to `CC1(COc2ccc(CC3SC(=O)NC3=O)cc2)CCCCC1` (stereo not drawn) [Ciglitazone, 5-(4-(1-methylcyclohexylmethoxy)benzyl)-2,4-dione, reference compound], for which the “% Change Glucose from Vehicle” value in series [1] was −43%. A word on the IC50: it is the point on the concentration scale where inhibition reaches its midpoint. By melting point is commonly meant the temperature of the solid-liquid transition. `COc1ccc(-c2ccc(-c3nc(-c4ccc(C(F)(F)F)cc4)oc3C)cc2)cc1` [Example 1, 4-(4′-Methoxy-biphenyl-4-yl)-5-methyl-2-(4-trifluoromethyl-phenyl)-oxazole] had a melting point of 167 to 168 °C. Also, in series [2], the IC50 worked out at 1660 nM. On to `COc1ccc(-c2cccc(-c3nc(-c4ccc(C(F)(F)F)cc4)oc3C)c2)cc1` [Example 2, 4-(4′-Methoxy-biphenyl-3-yl)-5-methyl-2-(4-trifluoromethyl-phenyl)-oxazole], for which the melting point lay in the range of 93 to 94 °C. In addition, the “percent of phosphatase control (change) at single concentration” value (“percent of phosphatase control (change)” for short) in series [2] is reported as −47 (2.5 uM) %. `Cc1oc(-c2ccc(C(F)(F)F)cc2)nc1-c1ccc(-c2ccc(O)cc2)cc1` [Example 3, 4′-[5-Methyl-2-(4-trifluoromethyl-phenyl)-oxazol-4-yl]-biphenyl-4-ol]: in series [2], the “percent of phosphatase control (change)” value is reported as −56 (2.5 uM) %. As to `Cc1oc(-c2ccc(C(F)(F)F)cc2)nc1-c1cccc(-c2ccc(O)cc2)c1` [Example 4, 3′-[5-Methyl-2-(4-trifluoromethyl-phenyl)-oxazol-4-yl]-biphenyl-4-ol], the “% Change from Control” value in series [3] is given as −28%. In the case of `Cc1oc(-c2ccc(C(F)(F)F)cc2)nc1-c1ccc(-c2ccc(OCC(=O)O)cc2)cc1` [Example 5, {4′-[5-Methyl-2-(4-trifluoromethyl-phenyl)-oxazol-4-yl]-biphenyl-4-yloxy}-acetic Acid], the IC50 in series [2] is 850 nM. Moreover, the “% Change Glucose from Vehicle” value in series [1] is −40^a %. For `Cc1oc(-c2ccc(C(F)(F)F)cc2)nc1-c1ccc(-c2ccc(OC(Cc3ccccc3)C(=O)O)cc2)cc1` (stereo not drawn) [Example 7, 2-{4′-[5-Methyl-2-(4-trifluoromethyl-phenyl)-oxazol-4-yl]-biphenyl-4-yloxy}-3-phenyl-propionic Acid], the IC50 in series [2] was determined as 1290 nM. Besides, the “% Change from Control” value in series [3] is given as −74%. In the case of `Cc1oc(-c2ccc(C(F)(F)F)cc2)nc1-c1cccc(-c2ccc(OC(Cc3ccccc3)C(=O)O)cc2)c1` (stereo not drawn) [Example 8, 2-{3′-[5-Methyl-2-(4-trifluoromethyl-phenyl)-oxazol-4-yl]-biphenyl-4-yloxy}-3-phenyl-propionic Acid], the IC50 in series [2] worked out at 1250 nM. In addition, the “% Change from Control” value in series [3] is reported as −78%.

`Cc1oc(-c2ccc(C(F)(F)F)cc2)nc1-c1ccc(-c2cc(Br)c(O)c(Br)c2)cc1` [Example 9, 3,5-Dibromo-4′-[5-methyl-2-(4-trifluoromethyl-phenyl)-oxazol-4-yl]-biphenyl-4-ol]: the IC50 in series [2] turned out to be 650 nM. Further, the “% Change from Control” value in series [3] was −20%. Take `Cc1oc(-c2ccc(C(F)(F)F)cc2)nc1-c1ccc(-c2cc(Br)c(OCC(=O)O)c(Br)c2)cc1` [Example 10, {3,5-Dibromo-4′-[5-methyl-2-(4-trifluoromethyl-phenyl)-oxazol-4-yl]-biphenyl-4-yloxy}-acetic Acid]: the IC50 in series [2] was 470 nM. The “% Change from Control” value in series [3] is recorded as −35%. `COC(=O)C(Cc1ccccc1)Oc1c(Br)cc(-c2ccc(-c3nc(-c4ccc(C(F)(F)F)cc4)oc3C)cc2)cc1Br` (stereo not drawn) [Example 11, 2-{3,5-Dibromo-4′-[5-methyl-2-(4-trifluoromethyl-phenyl)-oxazol-4-yl]-biphenyl-4-yloxy}-3-phenyl-propionic Acid Methyl Ester]: the melting point lay within 70 to 72 °C. Moreover, the “percent of phosphatase control (change)” value in series [2] is recorded as −40 (2.5 uM) %. Take `Cc1oc(-c2ccc(C(F)(F)F)cc2)nc1-c1ccc(-c2cc(Br)c(OC(Cc3ccccc3)C(=O)O)c(Br)c2)cc1` (stereo not drawn) [Example 12, 2-{3,5-Dibromo-4′-[5-methyl-2-(4-trifluoromethyl-phenyl)-oxazol-4-yl]-biphenyl-4-yloxy}-3-phenyl-propionic Acid]: the half-maximal inhibitory concentration (IC50) in series [2] worked out at 130 nM. Also, the “% Change from Control” value in series [3] is −68%. As for `Cc1oc(-c2ccc(C(F)(F)F)cc2)nc1-c1ccc(-c2ccc(Cn3oc(=O)[nH]c3=O)cc2)cc1` [Example 13, 2-{4′-[5-Methyl-2-(4-trifluoromethyl-phenyl)-oxazol-4-yl]-biphenyl-4-ylmethyl}-[1,2,4]oxadiazolidine-3,5-dione], the melting point was 196 to 198 °C. Also, in series [2], the IC50 is 1150 nM.

On to `Cc1oc(-c2ccc(C(F)(F)F)cc2)nc1-c1ccc(-c2cccc(Cn3oc(=O)[nH]c3=O)c2)cc1` [Example 14, 2-{4′-[5-Methyl-2-(4-trifluoromethyl-phenyl)-oxazol-4-yl]-biphenyl-3-ylmethyl}-[1,2,4]oxadiazolidine-3,5-dione], for which the melting point lay within 216 to 218 °C. Further, the “percent of phosphatase control (change)” value in series [2] is reported as −65 (2.5 uM) %. On to `Cc1oc(-c2ccc(C(F)(F)F)cc2)nc1-c1ccc(-c2ccc(OCc3nnn[nH]3)cc2)cc1` [Example 15, 5-{4′-[-Methyl-2-(4-trifluoromethyl-phenyl)-oxazol-4-yl]-biphenyl-4-yloxymethyl}-1H-tetrazole], for which the melting point was in the range of 226 to 227 °C. Besides, in series [2], the IC50 stood at 930 nM. In series [3], the “% Change from Control” value is given as −47%. As to `Cc1oc(-c2ccc(C(F)(F)F)cc2)nc1-c1ccc2c(Br)c(OCC(=O)O)ccc2c1` [Example 16, {1-Bromo-6-[5-methyl-2-(4-trifluoromethyl-phenyl)-oxazol-4-yl]-naphthalen-2-yloxy}-acetic Acid], the IC50 in series [2] came to 1200 nM. For the same molecule, the “% Change from Control” value in series [3] was −20%. In the same order, the values of `Cc1oc(-c2ccc(C(F)(F)F)cc2)nc1-c1ccc2c(Br)c(OC(Cc3ccccc3)C(=O)O)ccc2c1` (stereo not drawn) [Example 17, 2-{1-Bromo-6-[5-methyl-2-(4-trifluoromethyl-phenyl)-oxazol-4-yl]-naphthalen-2-yloxy}-3-phenyl-propionic Acid] are 980 nM and −54%.

On to “Ammonium molybdate tetrahydrate [reference compound]”, for which the 50% inhibitory concentration (IC50) in series [2] was 8700 nM.
